Values quoted from earlier work in patent US20030134332A1, “Diagnosis of endothelial dysfunction by nitric oxide bioactivity index” (priority 2001, published 2003).

What was measured:
[1] = system: plasma isoprostane (oxidant stress marker); conditions: diabetic men, 600 mg twice daily for seven days
[2] = system: wound healing in diabetic mice

## 2-(2,3-dihydro-5-acetoxy-4,6,7-trimethylbenzofuranyl) acetic acid [raxofelast]
[1]
  fall of plasma isoprostane levels in diabetics: 50%
[2]
  effect on wound healing: stimulates wound healing
